Measured values from patent US11072616B2, “Cyclic peptides targeting alpha-4-beta-7 integrin” (Zealand Pharma A/S, priority 2015, dated 2021).

Key:
[1] = Aqueous solubility assay; type: physicochemical; details: PBS pH 7.4, 4 h, room temperature; for Determined concentration Mean: mean of 3, maximal concentration evaluated 200, 500 or 1000 μM; for Determined concentration Rep 1: replicate 1; for Determined concentration Rep 2: replicate 2; for Determined concentration Rep 3: replicate 3
Method: Solutions were incubated for four hours at room temperature and stirred at 600 rpm and run in triplicate. Centrifugation was performed for 15 minutes at 6000 rpm and solution concentration was determined using HPLC-UV (photodiode array detector acquiring between 220 nm, and 300 nm wavelengths).

[2] = target: T1, integrin α4β7 (Homo sapiens, UniProt P13612+P26010); test: Integrin α4β7—MAdCAM-1 competition assay (ELISA); type: binding; details: ratio a4b1 ELISA IC50 / a4b7 ELISA IC50
T1 sequence (P13612 34-977 limits assumed): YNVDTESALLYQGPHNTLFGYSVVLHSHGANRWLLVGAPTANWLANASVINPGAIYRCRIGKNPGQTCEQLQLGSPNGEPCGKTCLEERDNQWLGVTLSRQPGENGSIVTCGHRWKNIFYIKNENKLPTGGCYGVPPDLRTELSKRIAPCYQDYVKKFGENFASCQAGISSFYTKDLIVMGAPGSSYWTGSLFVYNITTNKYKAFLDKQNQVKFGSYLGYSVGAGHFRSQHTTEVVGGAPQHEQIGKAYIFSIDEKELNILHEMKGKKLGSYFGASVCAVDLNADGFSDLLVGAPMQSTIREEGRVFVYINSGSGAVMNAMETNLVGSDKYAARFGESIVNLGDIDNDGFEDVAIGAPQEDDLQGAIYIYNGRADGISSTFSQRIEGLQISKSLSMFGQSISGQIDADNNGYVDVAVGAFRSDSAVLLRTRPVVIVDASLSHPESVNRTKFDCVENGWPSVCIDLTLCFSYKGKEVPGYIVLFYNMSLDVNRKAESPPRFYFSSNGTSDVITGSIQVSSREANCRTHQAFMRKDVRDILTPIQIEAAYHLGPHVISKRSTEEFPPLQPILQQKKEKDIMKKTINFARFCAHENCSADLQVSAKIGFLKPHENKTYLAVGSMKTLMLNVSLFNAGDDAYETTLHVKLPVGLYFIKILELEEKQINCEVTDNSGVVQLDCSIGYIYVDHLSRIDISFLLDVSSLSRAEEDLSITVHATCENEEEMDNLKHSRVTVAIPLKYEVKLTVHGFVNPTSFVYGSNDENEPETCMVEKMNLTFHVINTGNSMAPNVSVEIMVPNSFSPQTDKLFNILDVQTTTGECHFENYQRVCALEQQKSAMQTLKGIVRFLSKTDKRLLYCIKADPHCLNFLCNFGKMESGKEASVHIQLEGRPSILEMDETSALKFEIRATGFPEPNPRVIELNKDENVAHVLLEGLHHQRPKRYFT
T1 sequence (P26010 20-723 limits assumed): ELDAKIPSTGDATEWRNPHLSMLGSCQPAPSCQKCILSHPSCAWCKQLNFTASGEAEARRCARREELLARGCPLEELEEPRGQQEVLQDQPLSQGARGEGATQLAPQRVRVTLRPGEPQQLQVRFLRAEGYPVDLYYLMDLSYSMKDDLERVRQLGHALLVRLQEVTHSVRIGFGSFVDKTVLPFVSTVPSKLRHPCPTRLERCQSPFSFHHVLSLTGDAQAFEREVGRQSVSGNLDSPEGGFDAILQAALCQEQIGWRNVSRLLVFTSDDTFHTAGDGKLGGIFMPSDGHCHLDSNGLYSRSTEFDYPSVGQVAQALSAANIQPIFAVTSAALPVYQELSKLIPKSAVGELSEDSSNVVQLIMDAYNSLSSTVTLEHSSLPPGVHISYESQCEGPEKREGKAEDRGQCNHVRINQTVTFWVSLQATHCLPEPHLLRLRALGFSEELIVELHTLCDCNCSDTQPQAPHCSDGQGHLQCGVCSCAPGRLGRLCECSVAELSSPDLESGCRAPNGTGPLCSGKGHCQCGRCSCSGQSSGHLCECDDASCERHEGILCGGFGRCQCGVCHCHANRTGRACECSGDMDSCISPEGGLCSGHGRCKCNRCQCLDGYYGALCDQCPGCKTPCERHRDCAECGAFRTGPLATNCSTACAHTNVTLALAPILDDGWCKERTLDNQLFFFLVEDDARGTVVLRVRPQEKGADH
Summary of the method: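 Competitive ELISA in which serially diluted compound was incubated with the receptor system for 2 h at room temperature to equilibrium. Wash buffer contained 1 mM MnCl2. Bound Fc-tagged partner was detected with anti-human IgG Fc-HRP and TMB.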

| Compound | Selectivity ELISA [2] | further results |
| --- | --- | --- |
| CC(C)C[C@@H]1NC(=O)[C@@H](Cc2ccc(O)cc2)NC(=O)[C@@H]2CCCN2[C@H](C(=O)NC(C)(C)C)[C@H](C)NC(=O)[C@H]([C@@H](C)O)NC(=O)[C@H](CC(=O)O)NC1=O [UM0132375-02] | – | Determined concentration Mean [1]: 954.5 µM; Determined concentration Rep 1 [1]: 966.6 µM; Determined concentration Rep 2 [1]: 960.0 µM; Determined concentration Rep 3 [1]: 936.8 µM |
| CC(C)C[C@@H]1NC(=O)[C@@H]2CCCN2C(=O)[C@@H]2CCCN2[C@H](C(=O)NC(C)(C)C)[C@H](C)NC(=O)[C@H]([C@@H](C)O)NC(=O)[C@H](CC(=O)O)NC1=O [UM0132366-01] | – | Determined concentration Mean [1]: 467.8 µM; Determined concentration Rep 1 [1]: 474.2 µM; Determined concentration Rep 2 [1]: 477.4 µM; Determined concentration Rep 3 [1]: 451.9 µM |
| CC(C)C[C@@H]1NC(=O)CNC(=O)[C@H](Cc2ccc(O)cc2)NC(=O)[C@@H]2CCCN2[C@H](C(=O)NC(C)(C)C)[C@H](C)NC(=O)[C@H]([C@@H](C)O)NC(=O)[C@H](CC(=O)O)NC1=O [UM0134677-01] | – | Determined concentration Mean [1]: 224.6 µM; Determined concentration Rep 1 [1]: 225.4 µM; Determined concentration Rep 2 [1]: 230.6 µM; Determined concentration Rep 3 [1]: 217.8 µM |
| CC(C)C[C@@H]1NC(=O)[C@H](CCCCN)NC(=O)[C@@H]2CCCN2[C@H](C(=O)NC(C)(C)C)[C@H](C)NC(=O)[C@H]([C@@H](C)O)NC(=O)[C@H](CC(=O)O)NC1=O [UM0132376-01] | – | Determined concentration Mean [1]: 962.9 µM; Determined concentration Rep 1 [1]: 990.7 µM; Determined concentration Rep 2 [1]: 958.6 µM; Determined concentration Rep 3 [1]: 939.5 µM |
| CC(C)C[C@@H]1NC(=O)C[C@H](CCCCN)NC(=O)C2(Cc3ccccc3C2)NC(=O)[C@@H]2CCCN2[C@H](C(=O)NC(C)(C)C)[C@H](C)NC(=O)[C@H]([C@@H](C)O)NC(=O)[C@H](CC(=O)O)NC1=O [Compound 288] | 12.2 | – |
| CC(C)C[C@@H]1NC(=O)[C@H]2CCCCN2C(=O)[C@H](Cc2cscn2)NC(=O)[C@@H]2CCCN2[C@H](C(=O)NC(C)(C)C)[C@H](C)NC(=O)[C@H]([C@@H](C)O)NC(=O)[C@H](CC(=O)O)NC1=O [Compound 131] | 3.1 | – |
| CC(C)C[C@@H]1NC(=O)[C@H](Cc2cccnc2)NC(=O)[C@@H]2C[C@@H](O)CN2[C@H](C(=O)NC(C)(C)C)[C@H](C)NC(=O)[C@H]([C@@H](C)O)NC(=O)[C@H](CC(=O)O)NC1=O [Compound 44] | 2.3 | – |
| CC(C)C[C@@H]1NC(=O)[C@H]2c3ccccc3CCN2C(=O)[C@@H]2CCCN2[C@H](C(=O)NC(C)(C)C)[C@H](C)NC(=O)[C@H]([C@@H](C)O)NC(=O)[C@H](CC(=O)O)NC1=O [Compound 98] | 2.7 | – |
| CC(C)C[C@@H]1NC(=O)c2ccc(Br)c(c2)CNC(=O)[C@H](Cc2ccc(O)cc2)NC(=O)[C@@H]2CCCN2[C@H](C(=O)NC(C)(C)C)[C@H](C)NC(=O)[C@H]([C@@H](C)O)NC(=O)[C@H](CC(=O)O)NC1=O [Compound 336] | 5.6 | – |
| CC(C)C[C@@H]1NC(=O)[C@H]2CCCCN2C(=O)[C@H](Cc2ccc(-c3ccccc3)cc2)NC(=O)[C@@H]2CCCN2[C@H](C(=O)NC(C)(C)C)[C@H](C)NC(=O)[C@H]([C@@H](C)O)NC(=O)[C@H](CC(=O)O)NC1=O [Compound 138] | 5.0 | – |
| CC(C)C[C@@H]1NC(=O)C[C@H](CCCCN)NC(=O)[C@H](CC2CCCCC2)NC(=O)[C@@H]2CCCN2[C@H](C(=O)NC(C)(C)C)[C@H](C)NC(=O)[C@H]([C@@H](C)O)NC(=O)[C@H](CC(=O)O)NC1=O [Compound 210] | 16.0 | – |
| CC(C)C[C@@H]1NC(=O)[C@H]2CCCCN2C(=O)[C@H](Cc2ccccc2-c2ccccc2)NC(=O)[C@@H]2CCCN2[C@H](C(=O)NC(C)(C)C)[C@H](C)NC(=O)[C@H]([C@@H](C)O)NC(=O)[C@H](CC(=O)O)NC1=O [Compound 134] | 7.6 | – |
| CC(C)C[C@@H]1NC(=O)C[C@H](CCCCN)NC(=O)[C@H](Cc2ccc(O)cc2)NC(=O)[C@@H]2CCCN2[C@H](C(=O)NC(C)(C)C)[C@H](C)NC(=O)[C@H]([C@@H](C)OCc2ccccc2)NC(=O)[C@H](CC(=O)O)NC1=O [Compound 200] | 2.6 | – |
| CC(C)C[C@@H]1NC(=O)CN(C)C(=O)[C@H](Cc2ccc(-c3ccccc3)cc2)NC(=O)[C@@H]2CCCN2[C@H](C(=O)NC(C)(C)C)[C@H](C)NC(=O)[C@H]([C@@H](C)O)NC(=O)[C@H](CC(=O)O)NC1=O [Compound 116] | 8.4 | – |
| CC(C)C[C@@H]1NC(=O)C[C@H](CCCCN)NC[C@H](Cc2ccc(CN)cc2)NC(=O)[C@@H]2CCCN2[C@H](C(=O)NC(C)(C)C)[C@H](C)NC(=O)[C@H]([C@@H](C)O)NC(=O)[C@H](CC(=O)O)NC1=O [Compound 218] | 16.5 | – |
| CC(C)C[C@@H]1NC(=O)CN(C)C(=O)[C@H](Cc2cccc(I)c2)NC(=O)[C@@H]2CCCN2[C@H](C(=O)NC(C)(C)C)[C@H](C)NC(=O)[C@H]([C@@H](C)O)NC(=O)[C@H](CC(=O)O)NC1=O [Compound 106] | 18.7 | – |
| CC(C)C[C@@H]1NC(=O)C[C@H](CCCCN)NC(=O)[C@](C)(Cc2ccccc2)NC(=O)[C@@H]2CCCN2[C@H](C(=O)NC(C)(C)C)[C@H](C)NC(=O)[C@H]([C@@H](C)O)NC(=O)[C@H](CC(=O)O)NC1=O [Compound 263] | 23.1 | – |
| CC(C)C[C@@H]1NC(=O)[C@H](C2CCCCC2)NC(=O)[C@@H]2CCCN2[C@H](C(=O)NC(C)(C)C)[C@H](C)NC(=O)[C@H]([C@@H](C)O)NC(=O)[C@H](CC(=O)O)NC1=O [Compound 91] | 14.5 | – |
| CC(C)C[C@@H]1NC(=O)[C@H](Cc2ccccc2)NC(=O)[C@@H]2C[C@@H](F)CN2[C@H](C(=O)NC(C)(C)C)[C@H](C)NC(=O)[C@H]([C@@H](C)O)NC(=O)[C@H](CC(=O)O)NC1=O [Compound 45] | 3.2 | – |
| CC(C)C[C@@H]1NC(=O)[C@H]2CCCN2C(=O)[C@H](Cc2cc(F)c(F)c(F)c2)NC(=O)[C@@H]2CCCN2[C@H](C(=O)NC(C)(C)C)[C@H](C)NC(=O)[C@H]([C@@H](C)O)NC(=O)[C@H](CC(=O)O)NC1=O [Compound 128] | 11.4 | – |
| CC(C)C[C@@H]1NC(=O)c2ccc(-c3ccncc3)c(c2)CNC(=O)[C@H](Cc2ccc(O)cc2)NC(=O)[C@@H]2CCCN2[C@H](C(=O)NC(C)(C)C)[C@H](C)NC(=O)[C@H]([C@@H](C)O)NC(=O)[C@H](CC(=O)O)NC1=O [Compound 337] | 2.9 | – |
| CC(C)C[C@@H]1NC(=O)[C@@H]2C[C@@H](O)CN2C(=O)[C@H](Cc2ccc(O)cc2)NC(=O)[C@@H]2CCCN2[C@H](C(=O)NC(C)(C)C)[C@H](C)NC(=O)[C@H]([C@@H](C)O)NC(=O)[C@H](CC(=O)O)NC1=O [Compound 139] | 0.7 | – |
